Key:
strain Schinella granuli = assay: Oxytop respirometry screening test (oxygen overconsumption = uncoupling); assay type: cell-based
Source text: In order to evaluate the reduction in sludge production by an uncoupling chemical agent in respirometry (in order to measure oxygen overconsumption, a characteristic signature of the effects of an uncoupling agent), the oxytop® test technique is used containing a synthetic medium and bacterial strains particularly sensitive to uncoupling agents.
The method and the apparatus used are those described in Example 3 of WO 2004/113236 cited as a reference. The strain Schinella granuli was used as an inoculum in this methodology (which differs from Example 3 of WO 2004/113236 which used activated sludge).
They are expressed as an uncoupling percentage relatively to the control (not comprising any uncoupling agent). This means that for Ex2 at 0.05 mg/l, we have an oxygen overconsumption of 18% relatively to the control not comprising any uncoupling agent. THPS (tetrakis(hydromethyl)phosphonium sulfate) produces uncoupling effects in the oxitop® respirometry tests of 16±8% for a rated concentration of 3 ppm, the 95% confidence interval of THPS in terms of uncoupling factor being, values computed from results obtained in 26 Oxitop® tests.

[1] = test system: activated sludge from the urban STEP of St-Fons; assay: Chemostat biological pilot, reduction of activated sludge production (flash mixing); settings: 2.9 ppm, 3 months injection
Source text: Detection of the reduction of activated sludge by an organophosphonium derivative in a Chemostat® biological pilot.
Tests on biological pilots continuously fed with synthetic effluent dealt with the molecule of Ex2 (Example 2 above), show significant uncoupling effects on the reduction of sludge production. The biological pilots have a volume of 5 liters and are continuously aerated; a purge of the latter is made everyday (except on weekends) in order to obtain a sludge age of about 7 days. The biological pilots were seeded with activated sludge from the urban STEP of St-Fons (France). After a short acclimatization period of the sludge, the treatment with the molecule Ex2 was carried out according to the flash mixing method also described in Example 1 of WO 2004/113236 cited as a reference.
An experiment, for which the total period of injection of the uncoupling product according to the flash mixing method lasted for 3 months, gave the following results:
A complementary experiment, this time using two different grades of the compound Ex2 of Example 2 above, designated as EX21 and EX22a hereafter, gave the following results over a 1 month injection period: […]

With O=S(=O)([O-])[O-].OC[P+](CO)(CO)CO.OC[P+](CO)(CO)CO [THPS, tetrakis(hydromethyl)phosphonium sulfate] the “uncoupling percentage relatively to the control (oxygen overconsumption)” value (strain Schinella granuli; 3 ppm (rated concentration), THPS: average over 26 tests) was 16±8%, the “95% confidence interval in terms of uncoupling factor” value (strain Schinella granuli; 3 ppm, computed from 26 Oxitop tests) was 10-22 and the Growth rate [1] was 0.171 g of MLSS/g of removed COD. For the same molecule, the “Reduction in growth rate” value ([1]; vs untreated control) was 9.0% and the “Reduction in sludge production” value ([1]; vs untreated control) was 13.6%.
